Earlier results, collected in patent publication US5434174A, “Isoxazole derivatives for the treatment of irritable bowel syndrome” (priority 1993, dated 1995).

How the values were obtained:
[1] = IBS therapy; cited from earlier work
gastric secretion = conditions: intravenous infusion in humans; cited from earlier work

Row | SMILES | side effects [1] | effect on production of mucus (gastric secretion) | effect on volume and acidity of spontaneous and histamine-induced gastric secretion (gastric secretion)
1 | CCN(CC)CCOC(=O)C1(C2CCCCC2)CCCCC1 [Bentyl] | serious side effects | – | –
2 | NCCc1c[nH]c2ccc(O)cc12 [Example 5-HT, 5-hydroxytryptamine] | – | increasing the production of mucus | inhibits the volume and acidity of both spontaneous and histamine-induced gastric secretion
3 | N[C@@H](Cc1c[nH]c2ccc(O)cc12)C(=O)O [Example 5-HTP, 5-hydroxytryptophane] | – | increasing the production of mucus | inhibits the volume and acidity of both spontaneous and histamine-induced gastric secretion
